Test results reported in patent US8673950B2, “Dihydrooxazol-2-amine derivatives” (Hoffmann-LaRoche Inc., priority 2010, dated 2014).
Where a name gives a salt, the structure may show the parent alone.

What was measured:
rat TAAR1 = rat TAAR1 (Rattus norvegicus (Rat), UniProt Q923Y9); experiment: Radioligand binding assay on rat TAAR1; settings: for Ki: rat TAAR1, membranes of stably transfected HEK-293 cells, second value of cell mouse/rat
Method: (§1) Construction of TAAR Expression Plasmids and Stably Transfected Cell Lines
(§2) For the construction of expression plasmids the coding sequences of human, rat and mouse TAAR 1 were amplified from genomic DNA essentially as described by Lindemann et al.. The Expand High Fidelity PCR System (Roche Diagnostics) was used with 1.5 mM Mg^2+ and purified PCR products were cloned into pCR2.1-TOPO cloning vector (Invitrogen) following the instructions of the manufacturer. PCR products were subcloned into the pIRESneo2 vector (BD Clontech, Palo Alto, Calif.), and expression vectors were sequence verified before introduction in cell lines.
(§3) HEK293 cells (ATCC # CRL-1573) were cultured essentially as described by Lindemann et al. (2005). For the generation of stably transfected cell lines HEK293 cells were transfected with the pIRESneo2 expression plasmids containing the TAAR coding sequences (described above) with Lipofectamine 2000 (Invitrogen) according to the instructions of the manufacturer, and 24 hrs post transfection the culture medium was supplemented with 1 mg/ml G418 (Sigma, Buchs, Switzerland). After a culture period of about 10 d clones were isolated, expanded and tested for responsiveness to trace amines (all compounds purchased from Sigma) with the cAMP Biotrak Enzyme immunoassay (EIA) System (Amersham) following the non-acetylation EIA procedure provided by the manufacturer.
Radioligand Binding Assay on Rat TAAR1
(§4) Membrane Preparation and Radioligand Binding.
HEK-293 cells stably expressing rat TAAR1 were maintained at 37° C. and 5% CO2 in DMEM high glucose medium, containing fetal calf serum (10%, heat inactivated for 30 min at 56° C.), penicillin/streptomycin (1%), and 375 μg/ml geneticin (Gibco). Cells were released from culture flasks using trypsin/EDTA, harvested, washed twice with ice-cold PBS (without Ca^2+ and Mg^2+), pelleted at 1'000 rpm for 5 min at 4° C., frozen and stored at −80° C. Frozen pellets were suspended in 20 ml HEPES-NaOH (20 mM, pH 7.4) containing 10 mM EDTA and homogenized with a Polytron (PT 6000, Kinematica) at 14'000 rpm for 20 s. The homogenate was centrifuged at 48'000×g for 30 min at 4° C. Subsequently, the supernatant was removed and discarded, and the pellet resuspended in 20 ml HEPES-NaOH (20 mM, pH 7.4) containing 0.1 mM EDTA using the Polytron (20 s at 14'000 rpm). This procedure was repeated and the final pellet resuspended in HEPES-NaOH containing 0.1 mM EDTA and homogenized using the Polytron. Typically, aliquots of 2 ml membrane portions were stored at −80° C. With each new membrane batch the dissociation constant (Kd) was determined via a saturation curve. […] Nonspecific binding was defined as the amount of ^3[H]-(S)-4-[(ethyl-phenyl-amino)-methyl]-4,5-dihydro-oxazol-2-ylamine bound in the presence of 10 μM unlabeled ligand. All compounds were tested at a broad range of concentrations (10 pM to 10 μM) in duplicates. […] The 96 deep well plates were incubated for 1 hr at 4° C. Incubations were terminated by rapid filtration through Unifilter-96 plates (Packard Instrument Company) and glass filters GF/C (Perkin Elmer) presoaked for 1 hr in polyethylenimine (0.3%) and washed 3 times with 1 ml of cold binding buffer. After addition of 45 μl of Microscint 40 (PerkinElmer) the Unifilter-96 plate was sealed and after 1 hr the radioactivity counted using a TopCount Microplate Scintillation Counter (Packard Instrument Company).

mouse TAAR1 = mouse TAAR1 (Mus musculus (Mouse), UniProt Q923Y8); experiment: Radioligand binding assay on mouse TAAR1; settings: for Ki: mouse TAAR1, membranes of stably transfected HEK-293 cells, first value of cell mouse/rat
Method: as §1, §2, §3
Radioligand Binding Assay on Mouse TAAR1
as §4
HEK-293 cells stably expressing mouse TAAR1 were maintained at 37° C. and 5% CO2 in DMEM high glucose medium, containing fetal calf serum (10%, heat inactivated for 30 min at 56° C.), penicillin/streptomycin (1%), and 375 μg/ml geneticin (Gibco). Cells were released from culture flasks using trypsin/EDTA, harvested, washed twice with ice-cold PBS (without Ca^2+ and Mg^2+), pelleted at 1'000 rpm for 5 min at 4° C., frozen and stored at −80° C. Frozen pellets were suspended in 20 ml HEPES-NaOH (20 mM, pH 7.4) containing 10 mM EDTA and homogenized with a Polytron (PT 6000, Kinematica) at 14'000 rpm for 20 s. The homogenate was centrifuged at 48'000×g for 30 min at 4° C. Subsequently, the supernatant was removed and discarded, and the pellet resuspended in 20 ml HEPES-NaOH (20 mM, pH 7.4) containing 0.1 mM EDTA using the Polytron (20 s at 14'000 rpm). This procedure was repeated and the final pellet resuspended in HEPES-NaOH containing 0.1 mM EDTA and homogenized using the Polytron. Typically, aliquots of 2 ml membrane portions were stored at −80° C. With each new membrane batch the dissociation constant (Kd) was determined via a saturation curve. The TAAR1 radioligand ^3[H]-(S)-4-[(ethyl-phenyl-amino)-methyl]-4,5-dihydro-oxazol-2-ylamine (described in WO 2008/098857) was used at a concentration equal to the calculated Kd value, that was usually around 0.7 nM, resulting in the binding of approximately 0.5% of the radioligand and a specific binding representing approximately 70% of the total binding. Nonspecific binding was defined as the amount of ^3[H]-(S)-4-[(ethyl-phenyl-amino)-methyl]-4,5-dihydro-oxazol-2-ylamine bound in the presence of 10 μM unlabeled ligand. All compounds were tested at a broad range of concentrations ([…]) in duplicates. […] The 96 deep well plates were incubated for 1 hr at 4° C. Incubations were terminated by rapid filtration through Unifilter-96 plates (Packard Instrument Company) and glass filters GF/C (Perkin Elmer) presoaked for 1 hr in polyethylenimine (0.3%) and washed 3 times with 1 ml of cold binding buffer. After addition of 45 μl of Microscint 40 (PerkinElmer) the Unifilter-96 plate was sealed and after 1 hr the radioactivity counted using a TopCount Microplate Scintillation Counter (Packard Instrument Company).

mouse TAAR1, sequence (Q923Y8 whole entry): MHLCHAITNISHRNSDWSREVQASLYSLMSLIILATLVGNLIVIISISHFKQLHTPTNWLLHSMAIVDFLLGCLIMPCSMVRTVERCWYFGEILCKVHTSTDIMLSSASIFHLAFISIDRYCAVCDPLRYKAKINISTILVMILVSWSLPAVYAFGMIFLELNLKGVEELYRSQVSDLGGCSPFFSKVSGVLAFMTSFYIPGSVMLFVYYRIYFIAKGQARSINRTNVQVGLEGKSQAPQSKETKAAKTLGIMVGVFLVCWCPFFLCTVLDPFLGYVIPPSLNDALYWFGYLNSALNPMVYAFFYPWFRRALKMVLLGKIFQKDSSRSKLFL
rat TAAR1, sequence (Q923Y9 whole entry): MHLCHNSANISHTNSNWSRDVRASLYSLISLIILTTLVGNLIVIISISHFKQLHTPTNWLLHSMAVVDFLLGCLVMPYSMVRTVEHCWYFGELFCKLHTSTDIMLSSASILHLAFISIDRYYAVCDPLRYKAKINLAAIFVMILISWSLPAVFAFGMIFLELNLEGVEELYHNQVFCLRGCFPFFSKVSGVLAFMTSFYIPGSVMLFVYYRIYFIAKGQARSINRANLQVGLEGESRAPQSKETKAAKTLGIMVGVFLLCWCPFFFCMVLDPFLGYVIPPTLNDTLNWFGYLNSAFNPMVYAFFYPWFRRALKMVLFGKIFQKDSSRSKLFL

Ki (rat TAAR1) | Ki (mouse TAAR1) | Kd (rat TAAR1; rat TAAR1 membranes, saturation curve, read-out: dissociation constant (Kd) of the radioligand) | Kd (mouse TAAR1; mouse TAAR1 membranes, saturation curve, read-out: dissociation constant (Kd) of the radioligand) | Compound
0.0016 µM | 0.0008 µM |  |  | NC1=N[C@@H](CCc2ccc(Nc3cc(C(F)(F)F)cc(Cl)n3)cc2)CO1 [Example 42, {4-[2-((S)-2-Amino-4,5-dihydro-oxazol-4-yl)-ethyl]-phenyl}-(6-chloro-4-trifluoromethyl-pyridin-2-yl)-amine]
0.0031 µM | 0.0593 µM |  |  | NC1=N[C@@H](CCc2ccc(Nc3nccnc3Cl)cc2)CO1 [Example 41, {4-[2-((S)-2-Amino-4,5-dihydro-oxazol-4-yl)-ethyl]-phenyl}-(3-chloro-pyrazin-2-yl)-amine]
0.0008 µM | 0.0007 µM |  |  | NC1=N[C@@H](CCc2ccc(Nc3cccc(C(F)(F)F)n3)cc2)CO1 [Example 26, {4-[2-((S)-2-Amino-4,5-dihydro-oxazol-4-yl)-ethyl-]-phenyl}-(6-trifluoromethyl-pyridin-2-yl)-amine]
0.0039 µM | 0.0019 µM |  |  | NC1=N[C@@H](CCc2ccc(Nc3ncc(C(F)(F)F)cn3)cc2)CO1 [Example 56, (S)-4-(4-(5-(Trifluoromethyl)pyrimidin-2-ylamino)phenethyl)-4,5-dihydrooxazol-2-amine]
0.0007 µM | 0.007 µM |  |  | COc1cnc(Nc2ccc(CC[C@H]3COC(N)=N3)cc2)nc1 [Example 38, {4-[2-((8)-2-Amino-4,5-dihydro-oxazol-4-yl)-ethyl]-phenyl}-(5-methoxy-pyrimidin-2-yl)-amine]
0.0083 µM | 0.005 µM |  |  | CCOc1cnc(Nc2ccc(CC[C@H]3COC(N)=N3)cc2)nc1 [Example 55, {4-[2-((S)-2-Amino-4,5-dihydro-oxazol-4-yl)-ethyl]-phenyl}-(5-ethoxy-pyrimidin-2-yl)-amine]
0.0046 µM | 0.107 µM |  |  | Cc1cncc(Nc2ccc(CC[C@H]3COC(N)=N3)cc2)n1 [Example 43, {4-[2-((S)-2-Amino-4,5-dihydro-oxazol-4-yl)-ethyl]-phenyl}-(6-methyl-pyrazin-2-yl)-amine]
0.0084 µM | 0.0412 µM |  |  | NC1=N[C@@H](CCc2ccc(NC(c3ccc(C(F)(F)F)cc3)C(F)(F)F)cc2)CO1 (stereo partly drawn) [Example 67, (4S)-4-(4-(2,2,2-Trifluoro-1-(4-(trifluoromethyl)phenyl)ethylamino)phenethyl)-4,5-dihydrooxazol-2-amine]
0.0007 µM | 0.0035 µM |  |  | Cc1cccc(Nc2ccc(CC[C@H]3COC(N)=N3)cc2)n1 [Example 25, {4-[2-((S)-2-Amino-4,5-dihydro-oxazol-4-yl)-ethyl]-phenyl}-(6-methyl-pyridin-2-yl)-amine]
0.0265 µM | 0.0651 µM |  |  | NC1=N[C@@H](CCc2ccc(NC(c3ccc(Cl)cn3)C(F)(F)F)cc2)CO1 (stereo partly drawn) [Example 68, (4S)-4-(4-(1-(5-Chloropyridin-2-yl)-2,2,2-trifluoroethylamino)phenethyl)-4,5-dihydrooxazol-2-amine]
0.0028 µM | 0.02 µM |  |  | NC1=N[C@@H](CCc2ccc(Nc3ncc(OCC(F)(F)F)cn3)cc2)CO1 [Example 73, (S)-4-(4-(5-(2,2,2-Trifluoroethoxy)pyrimidin-2-ylamino)phenethyl)-4,5-dihydrooxazol-2-amine]

Continued, molecule first:

Compound | Ki (rat TAAR1) | Ki (mouse TAAR1) | Kd (rat TAAR1; rat TAAR1 membranes, saturation curve, read-out: dissociation constant (Kd) of the radioligand) | Kd (mouse TAAR1; mouse TAAR1 membranes, saturation curve, read-out: dissociation constant (Kd) of the radioligand)
NC1=N[C@@H](CCc2ccc(N[C@@H](c3ccc(Cl)cc3)C(F)(F)F)cc2)CO1 [Example 64, (+)-(S)-4-(4-((S)-1-(4-Chlorophenyl)-2,2,2-trifluoroethylamino)phenethyl)-4,5-dihydrooxazol-2-amine] | 0.002 µM | 0.063 µM |  | 
NC1=N[C@@H](CCc2ccc(Nc3cncc(Cl)n3)cc2)CO1 [Example 27, {4-[2-((S)-2-Amino-4,5-dihydro-oxazol-4-yl)-ethyl]-phenyl}-(6-chloro-pyrazin-2-yl)-amine] | 0.004 µM | 0.0182 µM |  | 
NC1=N[C@@H](CCc2ccc(Nc3ccc(Cl)cc3F)cc2)CO1 [Example 7, (S)-4-{2-[4-(4-Chloro-2-fluoro-phenylamino)-phenyl]-ethyl}-4,5-dihydro-oxazol-2-ylamine] | 0.0001 µM | 0.0017 µM |  | 
NC1=N[C@@H](CCc2ccc(Nc3ccncn3)cc2)CO1 [Example 35, (S)-4-(4-(Pyrimidin-4-ylamino)phenethyl)-4,5-dihydrooxazol-2-amine hydrochloride] | 0.0023 µM | 0.0551 µM |  | 
COc1ccc(Nc2ccc(CC[C@H]3COC(N)=N3)cc2)cc1 [Example 9, (S)-4-{2-[4-(4-Methoxy-phenylamino)-phenyl]-ethyl}-4,5-dihydro-oxazol-2-ylamine] | 0.0002 µM | 0.0032 µM |  | 
COc1cc(Nc2ccc(CC[C@H]3COC(N)=N3)cc2)ncn1 [Example 33, {4-[2-((S)-2-Amino-4,5-dihydro-oxazol-4-yl)-ethyl]-phenyl}-(6-methoxy-pyrimidin-4-yl)-amine] | 0.0023 µM | 0.0096 µM |  | 
CCN(C[C@H]1COC(N)=N1)c1ccccc1 [^3[H]-(S)-4-[(ethyl-phenyl-amino)-methyl]-4,5-dihydro-oxazol-2-ylamine, reference compound] |  |  | ~2.3 nM | ~0.7 nM
CC(C)c1cnc(Nc2ccc(CC[C@H]3COC(N)=N3)cc2)nc1 [Example 61, (S)-4-(4-(5-Isopropylpyrimidin-2-ylamino)phenethyl)-4,5-dihydrooxazol-2-amine] | 0.0002 µM | 0.0007 µM |  | 
CS(=O)(=O)c1cnc(Nc2ccc(CC[C@H]3COC(N)=N3)cc2)nc1 [Example 74, (S)-4-(4-(5-(Methylsulfonyl)pyrimidin-2-ylamino)phenethyl)-4,5-dihydrooxazol-2-amine] | 0.0146 µM | 0.046 µM |  | 
NC1=N[C@@H](CCc2ccc(Nc3ncccc3F)cc2)CO1 [Example 21, {4-[2-((S)-2-Amino-4,5-dihydro-oxazol-4-yl)-ethyl]-phenyl}-(3-fluoro-pyridin-2-yl)-amine] | 0.0005 µM | 0.02 µM |  | 
N#Cc1ccc(N(c2ccc(CC[C@H]3COC(N)=N3)cc2)c2ccc(C#N)cn2)nc1 [Example 12, (S)-6,6′-(4-(2-(2-Amino-4,5-dihydrooxazol-4-yl)ethyl)phenylazanediyl)dinicotinonitrile] |  | 0.111 µM |  | 
